Like-named read-outs stand apart in the source and are kept apart here.
How the values were obtained:
[1] = target: T1, 5-HT6R (Homo sapiens, UniProt P50406); assay: [3H]-LSD radioligand binding assay, HEK293 cells stably expressing human 5-HT6R; set-up: expressed in transfected cells; conditions: mean of three independent experiments
Procedure: Final compounds were evaluated in the [^3H]-LSD binding assay using HEK293 cells with stable expression of human 5-HT6R. […] Because the fluorine atom might affect the affinity at target protein as well as physicochemical and pharmacokinetic properties of compound,[22] fluorine substitution at the 2-phenyl ring was applied. […] The analysis of the binding mode of 18 and 28 (Figure 2A) confirmed that the 2-phenyl moiety is placed in the hydrophobic cavity between transmembrane domains (TMs) 4–6.
(§1) All experiments were carried out according to the previously published procedures.[41]−[43] HEK293 cells stably expressing human 5-HT1A, 5-HT6, 5-HT7b, and D2L receptors (prepared with the use of Lipofectamine 2000) or CHO-K1 cells with plasmid containing the sequence coding for the human serotonin 5-HT2A receptor (PerkinElmer) were maintained at 37 °C in a humidified atmosphere containing 5% CO2 and grown in Dulbecco’s modified Eagle’s medium containing 10% dialyzed fetal bovine serum and 500 μg/mL G418 sulfate. For membrane preparation, cells were cultured in 150 cm^2 flasks, grown to 90% confluence, washed twice with prewarmed to 37 °C phosphate buffered saline (PBS), and centrifuged (200g) in PBS containing 0.1 mM EDTA and 1 mM dithiothreitol. Prior to membrane preparation, pellets were stored at −80 °C. Cell pellets were thawed and homogenized in 10 volumes of assay buffer using an Ultra Turrax tissue homogenizer and centrifuged twice at 35 000g for 15 min at 4 °C, with incubation for 15 min at 37 °C between the centrifugations. The composition of the assay buffers was experimentally selected to achieve the maximum signal window (more details in Supporting Information). All assays were carried out in a total volume of 200 μL in 96-well plates for 1 h at 37 °C except 5-HT1AR and 5-HT2AR which were incubated at room temperature and 27 °C, respectively. The process of equilibration was terminated by rapid filtration through Unifilter plates with a 96-well cell harvester, and radioactivity retained on the filters was quantified on a Microbeta plate reader (PerkinElmer, USA). For displacement studies the assay samples contained the following as radioligands (PerkinElmer, USA): 2.5 nM [^3H]-8-OH-DPAT (135.2 Ci/mmol) for 5-HT1AR; 1 nM [^3H]-ketanserin (53.4 Ci/mmol) for 5-HT2AR; 2 nM [^3H]-LSD (83.6 Ci/mmol) for 5-HT6R; 0.8 nM [^3H]-5-CT (39.2 Ci/mmol) for 5-HT7R or 2.5 nM [^3H]-raclopride (76.0 Ci/mmol) for D2LR. Nonspecific binding was defined in the presence of 10 μM 5-HT in 5-HT1AR and 5-HT7R binding experiments, whereas 20 μM mianserin, 10 μM methiothepine, and 10 μM haloperidol were used in 5-HT2AR, 5-HT6R, and D2LR assays, respectively. Each compound was tested in triplicate at seven concentrations (10^–10–10^–4 M). The inhibition constants (Ki) were calculated from the Cheng–Prusoff equation.[44]

[2] = target: T1, 5-HT6R; set-up: expressed in transfected cells; conditions: cited from earlier work
[3] = target: T2, 5-HT7R (Homo sapiens, UniProt P34969); assay: [3H]-5-CT radioligand binding assay, HEK293 cells; conditions: mean of three experiments
T2 construct: expressed in transfected cells
Procedure: as §1

[4] = target: T1, 5-HT6R; assay: Basal cAMP production (constitutive Gs signaling) in NG108-15 cells transiently expressing 5-HT6R, CAMYEL BRET; type: cell-based; set-up: expressed in transfected cells; host or cells: NG108-15 (transient, Lipofectamine 2000, cotransfected with the CAMYEL sensor); conditions: for functional profile: 5-HT6R-dependent Gs signaling, NG108-15 cells; for IC50: decrease of basal cAMP, NG108-15 cells transiently expressing 5-HT6R
Procedure: NG108-15 cells were grown in Dulbecco’s modified Eagle’s medium (DMEM) supplemented with 10% dialyzed fetal calf serum, 2% hypoxanthine/aminopterin/thymidine (Life Technologies), and antibiotics. cAMP measurement was performed in cells transiently expressing 5-HT6R using the bioluminescence resonance energy transfer (BRET) sensor for cAMP, CAMYEL (cAMP sensor using YFP-Epac-RLuc).[45] NG108-15 cells were cotransfected in suspension with 5-HT6R (0.5 μg DNA/million cells) and CAMYEL constructs (1 μg DNA/million cells), using Lipofectamine 2000 according to the manufacturer’s protocol, and plated in white 96-well plates (Greiner) at a density of 50 000 cells per well. […] Coelanterazine H (Molecular Probes) was added at a final concentration of 5 μM and left at room temperature for 5 min. BRET was measured using a Mithras LB 940 plate reader (Berthold Technologies).

[5] = target: T1, 5-HT6R; assay: Inhibition of 5-CT-stimulated cAMP production in 1321N1 cells; type: cell-based; set-up: expressed in transfected cells; conditions: antagonism of 5-CT (1000 nM)-stimulated cAMP
Procedure: The effect of compounds 18, 22, 27, and 28 on adenylate cyclase was examined in 1321N1 cells expressing the 5-HT6R.
The properties of compounds 18, 22, 27, 28 to inhibit cAMP production induced by 5-CT (1000 nM), a 5-HT6R agonist, were evaluated. Compounds were tested in triplicate at eight concentrations (10^–11–10^–4 M). The level of cAMP was measured using frozen recombinant 1321N1 cells expressing the human serotonin 5-HT6R (PerkinElmer). Total cAMP was measured using the LANCE cAMP detection kit (PerkinElmer), according to the manufacturer’s recommendations. For quantification of cAMP levels, 2000 cells/well (5 μL) were incubated with a mixture of compounds (5 μL) for 30 min at room temperature in 384-well white opaque microtiter plate. After incubation, the reaction was stopped and cells were lysed by the addition of 10 μL of working solution (5 μL of Eu-cAMP and 5 μL of ULight-anti-cAMP) for 1 h at room temperature. Time-resolved fluorescence resonance energy transfer (TR-FRET) was detected by an Infinite M1000 Pro (Tecan) using instrument settings from LANCE cAMP detection kit manual. Kb values were calculated from Cheng–Prusoff equation specific for the analysis of functional inhibition curves: Kb = IC50/(1 + A/EC50) where A represents agonist concentration, IC50 the concentration of antagonist producing a 50% reduction in the response to agonist, and EC50 the agonist concentration which causes a half of the maximal response.[44]

[6] = target: T3, 5-HT2AR (Homo sapiens, UniProt P28223); assay: [3H]-ketanserin radioligand binding assay, CHO-K1 cells; conditions: mean of three experiments
T3 construct: host or cells: CHO-K1

[7] = target: T4, 5-HT1AR (Homo sapiens, UniProt P08908); assay: [3H]-8-OH-DPAT radioligand binding assay, HEK293 cells; conditions: mean of three experiments
T4 construct: expressed in transfected cells
T4 sequence (P08908 1-422): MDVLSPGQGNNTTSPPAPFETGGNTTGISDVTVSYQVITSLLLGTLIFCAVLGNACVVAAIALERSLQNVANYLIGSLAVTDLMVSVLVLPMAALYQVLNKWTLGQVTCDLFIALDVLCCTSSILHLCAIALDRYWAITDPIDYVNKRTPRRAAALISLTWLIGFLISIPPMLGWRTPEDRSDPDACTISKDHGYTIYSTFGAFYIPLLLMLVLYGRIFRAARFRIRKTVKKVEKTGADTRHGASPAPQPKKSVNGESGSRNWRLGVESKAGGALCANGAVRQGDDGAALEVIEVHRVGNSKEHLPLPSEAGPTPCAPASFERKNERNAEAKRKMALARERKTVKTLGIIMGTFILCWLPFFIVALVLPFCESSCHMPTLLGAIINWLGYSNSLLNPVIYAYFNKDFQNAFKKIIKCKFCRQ
Procedure: as §1

[8] = target: T5, D2R (Homo sapiens, UniProt P14416); assay: [3H]-raclopride radioligand binding assay, HEK293 cells; conditions: mean of three experiments
T5 construct: expressed in transfected cells
Procedure: as §1

T1 sequence (P50406 whole entry, the tested form may be a part): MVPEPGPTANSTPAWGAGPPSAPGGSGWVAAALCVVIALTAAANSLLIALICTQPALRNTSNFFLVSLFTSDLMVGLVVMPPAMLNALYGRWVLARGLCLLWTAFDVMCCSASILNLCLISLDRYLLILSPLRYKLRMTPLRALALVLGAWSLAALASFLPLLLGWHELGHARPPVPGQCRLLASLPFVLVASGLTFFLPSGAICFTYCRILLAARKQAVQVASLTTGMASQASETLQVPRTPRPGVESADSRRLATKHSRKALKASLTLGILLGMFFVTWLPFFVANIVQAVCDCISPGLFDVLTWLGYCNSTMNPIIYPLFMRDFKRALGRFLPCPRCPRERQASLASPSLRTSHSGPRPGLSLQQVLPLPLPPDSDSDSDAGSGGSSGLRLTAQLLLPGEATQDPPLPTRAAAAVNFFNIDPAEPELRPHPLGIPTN
T5 sequence (P14416 whole entry): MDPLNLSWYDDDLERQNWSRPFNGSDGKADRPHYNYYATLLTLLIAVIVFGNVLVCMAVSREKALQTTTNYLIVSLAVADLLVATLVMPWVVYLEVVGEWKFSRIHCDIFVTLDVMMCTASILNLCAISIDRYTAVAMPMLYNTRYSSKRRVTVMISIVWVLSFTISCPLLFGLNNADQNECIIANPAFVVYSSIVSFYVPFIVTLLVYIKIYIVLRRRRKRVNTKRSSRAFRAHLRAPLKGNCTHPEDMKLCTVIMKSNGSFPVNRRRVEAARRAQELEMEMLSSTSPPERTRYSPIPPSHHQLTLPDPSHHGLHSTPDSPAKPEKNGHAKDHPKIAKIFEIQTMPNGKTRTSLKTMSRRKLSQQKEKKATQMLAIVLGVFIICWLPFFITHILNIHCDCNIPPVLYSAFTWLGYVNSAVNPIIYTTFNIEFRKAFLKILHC
T3 sequence (P28223 whole entry): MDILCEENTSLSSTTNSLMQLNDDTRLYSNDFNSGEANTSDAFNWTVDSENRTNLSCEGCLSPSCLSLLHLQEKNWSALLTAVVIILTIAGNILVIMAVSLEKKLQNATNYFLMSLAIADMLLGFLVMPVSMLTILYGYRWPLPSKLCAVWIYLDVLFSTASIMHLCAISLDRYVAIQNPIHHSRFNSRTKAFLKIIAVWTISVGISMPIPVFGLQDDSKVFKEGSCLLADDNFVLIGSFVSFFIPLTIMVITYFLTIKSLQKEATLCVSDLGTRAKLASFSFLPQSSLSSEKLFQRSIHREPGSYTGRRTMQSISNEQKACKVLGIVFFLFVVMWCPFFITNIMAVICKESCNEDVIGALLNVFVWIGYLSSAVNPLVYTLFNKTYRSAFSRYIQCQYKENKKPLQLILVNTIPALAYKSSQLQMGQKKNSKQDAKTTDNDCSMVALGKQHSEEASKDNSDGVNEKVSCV
T2 sequence (P34969 1-432): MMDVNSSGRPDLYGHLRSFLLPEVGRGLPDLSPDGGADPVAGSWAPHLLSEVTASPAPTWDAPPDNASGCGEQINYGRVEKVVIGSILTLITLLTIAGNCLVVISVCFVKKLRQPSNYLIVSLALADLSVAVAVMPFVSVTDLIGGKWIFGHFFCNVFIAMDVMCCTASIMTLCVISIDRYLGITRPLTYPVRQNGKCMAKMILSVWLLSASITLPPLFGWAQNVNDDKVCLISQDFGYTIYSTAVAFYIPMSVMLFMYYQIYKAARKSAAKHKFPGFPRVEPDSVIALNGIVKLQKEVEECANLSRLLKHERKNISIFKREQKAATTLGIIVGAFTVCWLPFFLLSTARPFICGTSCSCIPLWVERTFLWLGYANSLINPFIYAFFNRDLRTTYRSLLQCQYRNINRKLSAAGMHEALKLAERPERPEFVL

For `Cc1ccccc1S(=O)(=O)n1ccc(C(=O)N[C@@H]2CCNC2)c1-c1ccccc1` [Compound 9], which Ki [1] is on record?
Its Ki is 324 nM.

For `O=C(N[C@@H]1CCNC1)c1ccn(S(=O)(=O)c2cccc(Cl)c2)c1-c1cccc(F)c1` [Compound 21], which Ki [1] is on record?
The Ki was 98 nM.

For `O=C(N[C@@H]1CCNC1)c1ccn(S(=O)(=O)c2ccccc2)c1-c1ccccc1` [Compound 7], which Ki [1] is on record?
Its Ki is 208 nM.

With `O=C(N[C@H]1CCNC1)c1ccn(S(=O)(=O)c2ccccc2)c1-c1ccccc1` [Compound 8] as the compound, how does the Ki [1] read?
Its Ki is 106 nM.

Which Ki [2] does the source give for `O=S(=O)(c1ccccc1)n1ccc2c(NC3CCNC3)nc3ccccc3c21` (stereo not drawn) [I] here?
Its Ki is 10 nM.

For `O=C(N[C@@H]1CCNC1)c1ccn(S(=O)(=O)c2ccc(F)cc2)c1-c1ccc(F)cc1` [Compound 29], which Ki [1] is on record?
Its Ki is 2580 nM.

For `O=C(N[C@H]1CCNC1)c1ccn(S(=O)(=O)c2ccc(F)cc2)c1-c1ccc(F)cc1` [Compound 30], which Ki [1] is on record?
Its Ki is 638 nM.

Which Ki [1] does the source give for `Cn1cc(S(=O)(=O)n2ccc(C(=O)N[C@H]3CCNC3)c2-c2ccccc2)cn1` [Compound 20] here?
Its Ki is 1460 nM.

Which Ki [1] does the source give for `O=C(N[C@@H]1CCNC1)c1ccn(S(=O)(=O)c2cccc(F)c2)c1-c1ccc(F)cc1` [Compound 26] here?
Its Ki is 56 nM.

Which results are given for `O=C(N[C@H]1CCNC1)c1ccn(S(=O)(=O)c2cccc(Cl)c2)c1-c1ccccc1` [Compound 18, (S)-2-Phenyl-1-[(3-chlorophenyl)sulfonyl]-N-(pyrrolidin-3-yl)-1H-pyrrole-3-carboxamide]?
Ki [1]: 25 nM; Ki [3]: 65500 nM; functional profile [4]: inverse agonist; IC50 [4]: 170 nM; Kb [5]: 35 nM; Ki [6]: 14600 nM; Ki [7]: 1370 nM; Ki [8]: 6840 nM

Which Ki [1] does the source give for `O=C(N[C@H]1CCNC1)c1ccn(S(=O)(=O)c2cccc3ccccc23)c1-c1ccc(F)cc1` [Compound 31] here?
The Ki was 391 nM.

With `O=C(N[C@@H]1CCNC1)c1ccn(S(=O)(=O)c2cccc(Cl)c2)c1-c1ccccc1` [Compound 17] as the compound, how does the Ki [1] read?
The Ki was 35 nM.

For `O=C(N[C@H]1CCNC1)c1ccn(S(=O)(=O)c2cccc(OC(F)(F)F)c2)c1-c1ccccc1` [Compound 16], which Ki [1] is on record?
Its Ki is 31 nM.

Which Ki [1] does the source give for `O=C(N[C@H]1CCNC1)c1ccn(S(=O)(=O)c2cccs2)c1-c1ccccc1` [Compound 19] here?
The Ki was 162 nM.

For `Cc1cccc(S(=O)(=O)n2ccc(C(=O)N[C@@H]3CCNC3)c2-c2ccccc2)c1` [Compound 11], which Ki [1] is on record?
The Ki was 96 nM.

Which Ki [1] does the source give for `O=C(N[C@@H]1CCNC1)c1ccn(S(=O)(=O)c2cccc(C(F)(F)F)c2)c1-c1ccccc1` [Compound 13] here?
Its Ki is 159 nM.

Which Ki [1] does the source give for `O=C(N[C@@H]1CCNC1)c1ccn(S(=O)(=O)c2cccc(F)c2)c1-c1ccccc1` [Compound 12] here?
Its Ki is 88 nM.

Which Ki [1] does the source give for `COc1cccc(S(=O)(=O)n2ccc(C(=O)N[C@@H]3CCNC3)c2-c2ccc(F)cc2)c1` [Compound 25] here?
Its Ki is 350 nM.

Which Ki [1] does the source give for `O=C(N[C@@H]1CCNC1)c1ccn(S(=O)(=O)c2ccccc2)c1-c1ccc(F)cc1` [Compound 24] here?
The Ki was 102 nM.

With `O=C(N[C@@H]1CCNC1)c1ccn(S(=O)(=O)c2ccc(F)cc2)c1-c1cccc(F)c1` [Compound 23] as the compound, how does the Ki [1] read?
The Ki was 853 nM.

For `O=C(N[C@H]1CCNC1)c1ccn(S(=O)(=O)c2cccc3cccnc23)c1-c1ccc(F)cc1` [Compound 32], which Ki [1] is on record?
The Ki was 1210 nM.

For `O=C(N[C@@H]1CCNC1)c1ccn(S(=O)(=O)c2cccc(OC(F)(F)F)c2)c1-c1ccccc1` [Compound 15], which Ki [1] is on record?
The Ki was 52 nM.

For `O=C(N[C@H]1CCNC1)c1ccn(S(=O)(=O)c2cccc(Cl)c2)c1-c1cccc(F)c1` [Compound 22, (S)-2-(3-Fluorophenyl)-1-[(3-chlorophenyl)sulfonyl)-N-(pyrrolidin-3-yl)-1H-pyrrole-3-carboxamide], which Ki [1] is on record?
The Ki was 28 nM.

And the Ki [3]?
The Ki was 7060 nM.

What about the functional profile [4] of the same compound?
Its functional profile is “inverse agonist”.

And the IC50 [4]?
Its IC50 is 306 nM.

What about the Kb [5] of the same compound?
The Kb was 6 nM.

What about the Ki [6] of the same compound?
The Ki was 15200 nM.

What about the Ki [7] of the same compound?
The Ki was 65700 nM.

What about the Ki [8] of the same compound?
The Ki was 6660 nM.

Which Ki [1] does the source give for `O=C(N[C@@H]1CCNC1)c1ccn(S(=O)(=O)c2ccccc2Cl)c1-c1ccccc1` [Compound 10] here?
Its Ki is 179 nM.

With `O=C(N[C@H]1CCNC1)c1ccn(S(=O)(=O)c2cccc(C(F)(F)F)c2)c1-c1ccccc1` [Compound 14] as the compound, how does the Ki [1] read?
The Ki was 38 nM.
